Measured values published in paper PMC6685951, “Migration of Bacteriocins Across Gastrointestinal Epithelial and Vascular Endothelial Cells, as Determined Using In Vitro Simulations” (Scientific Reports, 2019).
Where a SMILES comes first, the peptide text is derived from it. Bridges are numbered along the chain shown (N, C = ends).

Assay: Plasma stability assay (loss of antimicrobial activity)
Assay type: in vitro ADME, human
Conditions: 37 °C, 3 days, agar well diffusion vs L. monocytogenes EGDe, zone diameter (ImageJ)
Method: Human blood was collected in tubes with potassium and EDTA as anticoagulant, centrifuged at 500 × g (10 min, 25 °C) and the plasma collected. Different plasma concentrations (0%, 40% and 80%, v/v) were prepared by diluting with sterile ultrapure water. Nisin A, plantaricin 423 and bacST4SA, each suspended in sterile ultrapure water, were added to the plasma to final concentrations of 25 µM, 50 µM and 100 µM, sterile ultrapure water was used as control. Incubation was at 37 °C for 3 days and bacteriocin activity was tested using the agar well diffusion assay. Listeria monocytogenes EGDe was used as target organism. Digital images of the plates were taken after incubation and activity quantified by measuring the diameter of the zones using ImageJ software (version 1.5; https://imagej.nih.gov/ij/).

SMILES: CC(C)C[C@@H]1NC(=O)[C@H](Cc2c[nH]cn2)NC(=O)[C@H](CO)NC(=O)[C@H](C(C)C)NC(=O)[C@H](CO)NC(=O)[C@@H](NC(=O)[C@H](CO)NC(=O)[C@H](Cc2ccccc2)NC(=O)[C@H](C)NC(=O)[C@H](CCC(N)=O)NC(=O)CNC(=O)[C@H](Cc2c[nH]c3ccccc23)NC(=O)[C@H](CC(N)=O)NC(=O)[C@@H](NC(=O)[C@H](CO)NC(=O)[C@@H]2CSSC[C@H](NC(=O)[C@@H](NC(=O)[C@@H](NC(=O)CNC(=O)[C@H](CC(N)=O)NC(=O)CNC(=O)[C@H](Cc3ccc(O)cc3)NC(=O)[C@H](Cc3ccc(O)cc3)NC(=O)[C@@H](N)CCCCN)C(C)C)[C@@H](C)O)C(=O)NCC(=O)N[C@@H](CCCCN)C(=O)N[C@@H](Cc3c[nH]cn3)C(=O)N[C@@H](CO)C(=O)N2)C(C)C)CSSC[C@@H](C(=O)O)NC(=O)[C@H](CCCCN)NC(=O)CNC(=O)[C@H](Cc2c[nH]cn2)NC(=O)CNC(=O)[C@H](Cc2ccccc2)NC(=O)[C@H](CC(N)=O)NC(=O)[C@H](C)NC1=O [plantaricin 423] (H-KYYGNGVTCGKHSCSVNWGQAFSCSVSHLANFGHGKC-OH; disulfide 9-14, 24-37; N-terminus and C-terminus assumed)
- decrease in antimicrobial activity (40% (v/v) human EDTA plasma in ultrapure water, 25 µM peptide): 40%
- decrease in antimicrobial activity (40% (v/v) human EDTA plasma in ultrapure water, 50 µM peptide): 30%
- decrease in antimicrobial activity (40% (v/v) human EDTA plasma in ultrapure water, 100 µM peptide): 17%
- decrease in antimicrobial activity (80% (v/v) human EDTA plasma in ultrapure water, 25 µM peptide): 60%
- decrease in antimicrobial activity (80% (v/v) human EDTA plasma in ultrapure water, 50 µM peptide): 39%
- decrease in antimicrobial activity (80% (v/v) human EDTA plasma in ultrapure water, 100 µM peptide): 29%
